Data on 27 molecules can be found in patent publication US20040175401A1, “Enhanced parmacokinetic profile of hydrophobic substances” (priority 2001, published 2004).

Data set [1] is described as follows: n-octanol/water partition coefficient LogPoct calculated from solubility data. The following applies: calculated as logPoct = (0.99 - logSw)/1.34. The text has this: where logSw is the molar solubility and logPoct is the water-oil partition coefficient. Using this equation, values for logPoct can be calculated from solubility data.
For data set [2] the following is noted: molar aqueous solubility, log value; cited from earlier work.
For data set [3] the following is noted: for AUC(0-∞) / Cmax / T1/2 / Tmax: mean, n = 6. On the procedure: Six Yucatan mini-pigs weighing 20-25 kg were used. […] A total of 6 animals were utilized in a full crossover design where each animal received a 1.0 mg dose by all administration routes in an injection volume of 0.1 mL.
The intravenous dose was administered an ear vein catheter. Subcutaneous delivery was through a standard 0.5 inch, 30 gauge needle. Delivery to the dermis was through a three point microneedle array having three 34 gauge needles with 7 mm spacing and 1 mm depth to right flank of the animal between the rib cage and the rear leg. Subcutaneous and intravenous administration was by manual injection seconds. Administration to the dermis was at a rate of 90 μL/min by a syringe pump.
The study design was a full crossover with each animal receiving intravenous, subcutaneous and dermal administration. Each animal received three treatments over a two-week period with a minimal washout period of 2 days between subsequent doses. Dosing was according to the schedule shown below in Table 2.
Blood samples were obtained from the vena cava access port immediately before dosing and at 5, 10, 15, 20, 30, 45, 60 minutes and 2, 3, 4, 6, 8, 10, 14 and 24 hours after administration. Timing was started at the cessation of injection for a given method. The venous samples were collected into EDTA containing Vacutainer tubes, centrifuged at approximately 1000 g for 10 minutes at 4° C. After centrifugation, the plasma layer was transferred to plastic storage vials and stored frozen at −70° C. until assayed.
Assay of the pig plasma samples was performed by HPLC analysis. Results are shown below in Tables 3
Pharmacokinetic parameters were estimated using Watson Drug Metabolism Laboratory Information Management System, version 6.2.0.02 (Innaphase Corp., Philadelphia, Pa.). Parameters determined were the maximal plasma concentration, Cmax, time to maximal plasma concentration Tmax, area under the curve estimated to t=infinity, Tmax and the half-life for decrease in plasma concentration, T1/2.

For orientation: Cmax means the maximum level reached in the sampled fluid or tissue. In general, Tmax refers to the time from dosing to the highest level.

Read-outs that look alike come from different tables or passages of the source.

As for `CCCCCCCC(=O)OCN1C(=O)NC(c2ccccc2)(c2ccccc2)C1=O` [3-octanoloxymethyl-5,5-diphenylhydantoin], in data set [1], the LogPoct is recorded as 5.60. Besides, the LogSw in data set [2] is −6.52 moles/L.
For `CCCCC(=O)OCN1C(=O)NC(c2ccccc2)(c2ccccc2)C1=O` [3-pentanoyloxymethyl-5,5-diphenylhydantoin], the LogSw in data set [2] is −4.68 moles/L.
`O=C1NC(=O)C2(CC2)C(=O)N1` [5,5-(CH2)2-barbituric acid]: the LogPoct in data set [1] was 2.15.
With `O=C1NC(=O)C2(CCC2)C(=O)N1` [5,5-(CH2)3-barbituricacid], the LogPoct in data set [1] is recorded as 1.98.
As to `O=C1NC(=O)C2(CCCC2)C(=O)N1` [5,5-(CH2)4-barbituric acid], the LogPoct in data set [1] is recorded as 3.97.
Turning to `O=C1NC(=S)NC(=O)C12CCCCC2` [5,5-(CH2)5-2-thiobarbituric acid], the LogPoct in data set [1] is 3.32. The LogSw in data set [2] was −3.46 moles/L.
As for `O=C1NC(=O)C2(CCCCC2)C(=O)N1` [5,5-(CH2)5-barbituric acid], the LogPoct in data set [1] is 3.02.
Take `O=C1NC(=O)C2(CCCCCCC2)C(=O)N1` [5,5-(CH2)7-barbituric acid]: the LogPoct in data set [1] was 2.96.
Take `O=C1NC(=O)C2(CCCCCCCCCC2)C(=O)N1` [5,5-(CH2)10-barbituric acid]: the LogPoct in data set [1] was 4.16. Moreover, in data set [2], the LogSw is recorded as −4.59 moles/L.
On to `O=C1NC(=O)C2(CCCCCCCCCCC2)C(=O)N1` [5,5-(CH2)11-barbituric acid], for which the LogPoct in data set [1] was 5.07. For the same molecule, the LogSw in data set [2] is given as −5.80 moles/L.
Turning to `CC(C)C1(C(C)C)C(=O)NC(=O)NC1=O` [5,5-di-iPr-barbituric acid], in data set [1], the LogPoct is 2.81.
For `O=C1NC(=O)C(c2ccccc2)(c2ccccc2)N1` [5,5-diphenyhlhydantoin], the LogPoct in data set [1] is on record as 3.80. For the same molecule, the LogSw in data set [2] is given as −4.10 moles/L.
Regarding `O=C1NC(=O)C(c2ccccc2)(c2ccccc2)C(=O)N1` [5,5-diphenylbarbituric acid], the LogPoct in data set [1] is on record as 3.87.
`CCCC(C)C1(CC)C(=O)NC(=S)NC1=O` (stereo not shown) [5-Et-5-(1-methylbutyl)-2-thiobarbituric acid]: the LogPoct in data set [1] is 3.49. For the same molecule, the LogSw in data set [2] is reported as −3.68 moles/L.
Regarding `CCC1(CC=C(C)C)C(=O)NC(=O)NC1=O` [5-Et-5-(3-methylbut-2-enyl)-barbituric acid], the LogPoct in data set [1] is 2.42.
In the case of `C=CCC1(CC)C(=O)NC(=O)NC1=O` [5-Et-5-allyl-barbituric acid], the LogPoct in data set [1] is reported as 1.64. In addition, the LogSw in data set [2] is recorded as −1.61 moles/L.
In the case of `C=CCC1(C)C(=O)NC(=O)NC1=O` [5-Me-5-allylbartituric acid], the LogPoct in data set [1] is listed as 1.60.
As for `CCC1(CC)C(=O)NC(=S)NC1=O` [5-diethyl-2-thiobarbituric acid], in data set [1], the LogPoct is 2.36.
In the case of `C=CCC1(C(C)C)C(=O)NC(=O)NC1=O` [5-iPr-5-allyl-barbituric acid], the LogSw in data set [2] was −1.71 moles/L.
As for `CC(C)=CCC1(C(C)(C)C)C(=O)NC(=O)NC1=O` [5-tBu-5-(3-methylbut-2-enyl)-barbituric acid], the LogPoct in data set [1] is 3.39.
As for `CN[C@@H]1Cc2cccc3[nH]c(=S)n(c23)C1` [(R)-5,6-dihydro-5-(methylamino)-4H-imidazo[4,5-ij]-quinoline-2(1H)-thione], the “Plasma Concentration, Mean” value came to 24.8 ng/mL in data set [3] (ID (dermis), 1.0 mg dose, 5 min); 22.5 ng/mL in data set [3] (ID (dermis), 1.0 mg dose, 10 min); 16.4 ng/mL in data set [3] (ID (dermis), 1.0 mg dose, 15 min); 18.0 ng/mL in data set [3] (ID (dermis), 1.0 mg dose, 20 min); 14.0 ng/mL in data set [3] (ID (dermis), 1.0 mg dose, 30 min); 9.9 ng/mL in data set [3] (ID (dermis), 1.0 mg dose, 45 min). Moreover, the “Plasma Concentration, Mean” value in data set [3] (ID (dermis), 1.0 mg dose, 1 hr) is listed as 9.0 ng/mL; in data set [3] (ID (dermis), 1.0 mg dose, 2 hr) it was 5.7 ng/mL; in data set [3] (ID (dermis), 1.0 mg dose, 3 hr), 4.2 ng/mL; in data set [3] (ID (dermis), 1.0 mg dose, 4 hr), 3.6 ng/mL; in data set [3] (ID (dermis), 1.0 mg dose, 6 hr), 0.4 ng/mL; in data set [3] (ID (dermis), 1.0 mg dose, 8 hr) it was 0 ng/mL. The “Plasma Concentration, Mean” value was 0 ng/mL in data set [3] (ID (dermis), 1.0 mg dose, 10 hr); 0 ng/mL in data set [3] (ID (dermis), 1.0 mg dose, 14 hr); 0 ng/mL in data set [3] (ID (dermis), 1.0 mg dose, 24 hr); 29.8 ng/mL in data set [3] (IV, 1.0 mg dose, 5 min); 20.5 ng/mL in data set [3] (IV, 1.0 mg dose, 10 min); 18.5 ng/mL in data set [3] (IV, 1.0 mg dose, 15 min). Further, the “Plasma Concentration, Mean” value is on record as 15.3 ng/mL in data set [3] (IV, 1.0 mg dose, 20 min); 13.1 ng/mL in data set [3] (IV, 1.0 mg dose, 30 min); 10.7 ng/mL in data set [3] (IV, 1.0 mg dose, 45 min); 9.1 ng/mL in data set [3] (IV, 1.0 mg dose, 1 hr); 6.7 ng/mL in data set [3] (IV, 1.0 mg dose, 2 hr); 2.8 ng/mL in data set [3] (IV, 1.0 mg dose, 3 hr). The “Plasma Concentration, Mean” value in data set [3] (IV, 1.0 mg dose, 4 hr) was 1.6 ng/mL; in data set [3] (IV, 1.0 mg dose, 6 hr), 2.6 ng/mL; in data set [3] (IV, 1.0 mg dose, 8 hr) it was 0 ng/mL; in data set [3] (IV, 1.0 mg dose, 10 hr) it was 0 ng/mL; in data set [3] (IV, 1.0 mg dose, 14 hr), 0 ng/mL; in data set [3] (IV, 1.0 mg dose, 24 hr), 0 ng/mL. Moreover, the “Plasma Concentration, Mean” value came to 10.0 ng/mL in data set [3] (SC, 1.0 mg dose, 5 min); 15.3 ng/mL in data set [3] (SC, 1.0 mg dose, 10 min); 16.0 ng/mL in data set [3] (SC, 1.0 mg dose, 15 min); 14.5 ng/mL in data set [3] (SC, 1.0 mg dose, 20 min); 14.0 ng/mL in data set [3] (SC, 1.0 mg dose, 30 min); 9.9 ng/mL in data set [3] (SC, 1.0 mg dose, 45 min). Besides, the “Plasma Concentration, Mean” value in data set [3] (SC, 1.0 mg dose, 1 hr) was 8.9 ng/mL; in data set [3] (SC, 1.0 mg dose, 2 hr) it was 5.6 ng/mL; in data set [3] (SC, 1.0 mg dose, 3 hr), 4.1 ng/mL; in data set [3] (SC, 1.0 mg dose, 4 hr) it was 2.2 ng/mL; in data set [3] (SC, 1.0 mg dose, 6 hr) it was 1.6 ng/mL; in data set [3] (SC, 1.0 mg dose, 8 hr) it was 0.6 ng/mL. The “Plasma Concentration, Mean” value in data set [3] (SC, 1.0 mg dose, 10 hr) was 0 ng/mL; in data set [3] (SC, 1.0 mg dose, 14 hr) it was 0 ng/mL; in data set [3] (SC, 1.0 mg dose, 24 hr) it was 0 ng/mL. The “AUC(0-∞)” value was 33.6 ng·h/mL in data set [3] (ID (dermis), 1.0 mg dose); 32.4 ng·h/mL in data set [3] (IV, 1.0 mg dose); 32.1 ng·h/mL in data set [3] (SC, 1.0 mg dose). The peak concentration (Cmax) in data set [3] (ID (dermis), 1.0 mg dose) came to 26.7 ng/mL; in data set [3] (IV, 1.0 mg dose) it was 29.8 ng/mL; in data set [3] (SC, 1.0 mg dose), 16.9 ng/mL. In addition, the T1/2 in data set [3] (ID (dermis), 1.0 mg dose) stood at 96.6 min; in data set [3] (IV, 1.0 mg dose) it was 87 min; in data set [3] (SC, 1.0 mg dose) it was 90 min. Further, the Tmax in data set [3] (ID (dermis), 1.0 mg dose) was 8.34 min; in data set [3] (IV, 1.0 mg dose), 4.98 min; in data set [3] (SC, 1.0 mg dose), 13.3 min. Moreover, the “Heterogeneity of Regression analysis of plasma values, dermis versus intravenous administration” value in data set [3] (ID versus IV, both different from SC) is “not different from each other”. In addition, in data set [3] (ID versus SC, 1.0 mg dose), the “Cmax values following administration to the dermis compared with subcutaneous administration” value is listed as “consistently greater”. Besides, the “Plasma levels of drug after administration into the dermis compared with subcutaneous administration” value in data set [3] (ID versus SC, 1.0 mg dose) was “higher plasma levels”. The “Tmax values following administration to the dermis compared with subcutaneous administration” value in data set [3] (ID versus SC, 1.0 mg dose) is “consistently lesser”.
Regarding `COc1ccc(-c2cc(=S)ss2)cc1` [Anethole trithione], the LogPoct in data set [1] is given as 5.07.
Consider `O=c1[nH]cnc2c1ncn2[C@H]1CC[C@@H](CO)O1` [Didanosine], for which, in data set [2], the LogSw is −0.90 moles/L.
`CC(=O)Nc1nc2c(ncn2COCCO)c(=O)[nH]1` [N2-acetylacyclovir]: in data set [1], the LogPoct is listed as 2.17.
`CC(=O)/C=C/C1C(C)=CCCC1(C)C` (stereo not shown) [a-ionone]: the LogSw in data set [2] is on record as −3.06 moles/L.
For the molecule `S=c1ccss1` [dithiolethione], in data set [1], the LogPoct is given as 2.59.
On to `C=C(C)[C@H]1CC=C(C)CC1` [limonene], for which the LogSw in data set [2] is −3.41 moles/L.
